3 h FOB score data for 25 substances are collected here from the OligoGym collection.

HELM strings list units from the 5' end as sugar, base in round brackets, then linkage (d deoxyribose, r ribose, m 2'-O-methyl, p phosphodiester). Strings are as the collection lists them; they lack the last nucleoside at the 3' end of the tested compound. [moe] = 2'-O-(2-methoxyethyl) (MOE); [sp] = phosphorothioate linkage; [m5C] = 5-methylcytosine

This data set has as its target GFAP. In words: mouse, dose not given. Conditions: ASO.
“RNA1{[moe]([m5C])[sp].[moe](G)p.[moe](G)p.[moe](A)p.[moe](T)[sp].d([m5C])[sp].d(T)[sp].d([m5C])[sp].d(T)[sp].d(T)[sp].d(T)[sp].d([m5C])[sp].d(A)[sp].d(G)[sp].d(G)[sp].[moe](G)p.[moe]([m5C])p.[moe](T)[sp].[moe](G)}$$$$ (last 3' nucleoside missing)” displayed a 3 h FOB score of 5 score 0-7.

As for “RNA1{[moe]([m5C])[sp].[moe](G)p.[moe](G)p.[moe]([m5C])p.[moe](T)[sp].d([m5C])[sp].d(T)[sp].d([m5C])[sp].d(T)[sp].d([m5C])[sp].d(A)[sp].d(T)[sp].d([m5C])[sp].d(T)[sp].d(G)[sp].[moe](T)p.[moe]([m5C])p.[moe](A)[sp].[moe](A)}$$$$ (last 3' nucleoside missing)”, the 3 h FOB score was 2 score 0-7.

Consider “RNA1{[moe]([m5C])[sp].[moe](G)p.[moe](T)p.[moe](A)p.[moe](T)[sp].d(T)[sp].d(G)[sp].d(T)[sp].d(G)[sp].d(A)[sp].d(G)[sp].d(G)[sp].d([m5C])[sp].d(T)[sp].d(T)[sp].[moe](T)p.[moe](T)p.[moe](G)[sp].[moe](A)}$$$$ (last 3' nucleoside missing)”, for which the 3 h FOB score amounted to 7 score 0-7.

“RNA1{[moe]([m5C])[sp].[moe](G)p.[moe](T)p.[moe](G)p.[moe](T)[sp].d([m5C])[sp].d(A)[sp].d(G)[sp].d([m5C])[sp].d([m5C])[sp].d([m5C])[sp].d(T)[sp].d(G)[sp].d(A)[sp].d(G)[sp].[moe]([m5C])p.[moe](A)p.[moe]([m5C])[sp].[moe]([m5C])}$$$$ (last 3' nucleoside missing)” gave a 3 h FOB score of 2 score 0-7.

With “RNA1{[moe]([m5C])[sp].[moe](G)p.[moe](T)p.[moe]([m5C])p.[moe](A)[sp].d([m5C])[sp].d(A)[sp].d(T)[sp].d(T)[sp].d([m5C])[sp].d(A)[sp].d([m5C])[sp].d(T)[sp].[moe](A)p.[moe](A)p.[moe](T)[sp].[moe](A)}$$$$ (last 3' nucleoside missing)”, the 3 h FOB score was found to be 0 score 0-7.

“RNA1{[moe]([m5C])[sp].[moe](G)p.[moe](T)p.[moe]([m5C])p.[moe](A)p.[moe]([m5C])p.d(A)[sp].d(T)[sp].d(T)[sp].d([m5C])[sp].d(A)[sp].d([m5C])[sp].d(T)[sp].d(A)[sp].d(A)[sp].d(T)[sp].[moe](A)p.[moe](T)[sp].[moe](T)}$$$$ (last 3' nucleoside missing)” registered a 3 h FOB score of 0 score 0-7.

The substance “RNA1{[moe]([m5C])[sp].[moe](G)p.[moe](T)p.[moe]([m5C])p.[moe](A)p.d([m5C])[sp].d(A)[sp].d(T)[sp].d(T)[sp].d([m5C])[sp].d(A)[sp].d([m5C])[sp].d(T)[sp].d(A)[sp].d(A)[sp].[moe](T)p.[moe](A)p.[moe](T)[sp].[moe](T)}$$$$ (last 3' nucleoside missing)” showed a 3 h FOB score of 0 score 0-7.

“RNA1{[moe]([m5C])[sp].[moe](G)p.[moe](T)p.[moe]([m5C])p.d(A)[sp].d([m5C])[sp].d(A)[sp].d(T)[sp].d(T)[sp].d([m5C])[sp].d(A)[sp].d([m5C])[sp].d(T)[sp].d(A)[sp].[moe](A)p.[moe](T)p.[moe](A)p.[moe](T)[sp].[moe](T)}$$$$ (last 3' nucleoside missing)” returned a 3 h FOB score of 0 score 0-7.

The substance “RNA1{[moe]([m5C])[sp].[moe](G)p.[moe]([m5C])p.[moe](A)p.[moe](G)[sp].d([m5C])[sp].d(A)[sp].d(T)[sp].d(T)[sp].d(T)[sp].d(G)[sp].d(T)[sp].d([m5C])[sp].d(T)[sp].d(T)[sp].[moe](T)p.[moe](A)p.[moe](T)[sp].[moe](T)}$$$$ (last 3' nucleoside missing)” registered a 3 h FOB score of 5 score 0-7.

“RNA1{[moe]([m5C])[sp].[moe](T)p.[moe](A)p.[moe](G)p.[moe](T)p.[moe]([m5C])p.d(A)[sp].d(G)[sp].d([m5C])[sp].d([m5C])[sp].d(T)[sp].d(G)[sp].d(G)[sp].d(T)[sp].d(T)[sp].d(A)[sp].[moe](G)p.[moe]([m5C])[sp].[moe]([m5C])}$$$$ (last 3' nucleoside missing)” gave a 3 h FOB score of 4 score 0-7.

On to “RNA1{[moe]([m5C])[sp].[moe](T)p.[moe](A)p.[moe](G)p.[moe](T)p.d([m5C])[sp].d(A)[sp].d(G)[sp].d([m5C])[sp].d([m5C])[sp].d(T)[sp].d(G)[sp].d(G)[sp].d(T)[sp].d(T)[sp].[moe](A)p.[moe](G)p.[moe]([m5C])[sp].[moe]([m5C])}$$$$ (last 3' nucleoside missing)”, for which the 3 h FOB score amounted to 2 score 0-7.

For “RNA1{[moe]([m5C])[sp].[moe](T)p.[moe](A)p.[moe](G)p.d(T)[sp].d([m5C])[sp].d(A)[sp].d(G)[sp].d([m5C])[sp].d([m5C])[sp].d(T)[sp].d(G)[sp].d(G)[sp].d(T)[sp].[moe](T)p.[moe](A)p.[moe](G)p.[moe]([m5C])[sp].[moe]([m5C])}$$$$ (last 3' nucleoside missing)”, the 3 h FOB score turned out to be 4 score 0-7.

For “RNA1{[moe]([m5C])[sp].[moe](T)p.[moe](G)p.[moe]([m5C])p.[moe](T)[sp].d([m5C])[sp].d(T)[sp].d(T)[sp].d(T)[sp].d([m5C])[sp].d([m5C])[sp].d([m5C])[sp].d(T)[sp].d([m5C])[sp].d(A)[sp].[moe]([m5C])p.[moe](T)p.[moe](T)[sp].[moe](T)}$$$$ (last 3' nucleoside missing)”, the 3 h FOB score stood at 0 score 0-7.

Take “RNA1{[moe]([m5C])[sp].[moe](T)p.[moe](G)p.[moe]([m5C])p.[moe]([m5C])[sp].d(A)[sp].d(T)[sp].d(T)[sp].d(T)[sp].d(A)[sp].d(T)[sp].d([m5C])[sp].d(T)[sp].[moe](G)p.[moe](T)p.[moe](G)[sp].[moe]([m5C])}$$$$ (last 3' nucleoside missing)”: the 3 h FOB score is 1 score 0-7.

For “RNA1{[moe]([m5C])[sp].[moe](T)p.[moe](G)p.[moe]([m5C])p.[moe]([m5C])p.[moe](A)p.d(T)[sp].d(T)[sp].d(T)[sp].d(A)[sp].d(T)[sp].d([m5C])[sp].d(T)[sp].d(G)[sp].d(T)[sp].d(G)[sp].[moe]([m5C])p.[moe](T)[sp].[moe](T)}$$$$ (last 3' nucleoside missing)”, the 3 h FOB score is 1 score 0-7.

“RNA1{[moe]([m5C])[sp].[moe](T)p.[moe](G)p.[moe]([m5C])p.[moe]([m5C])p.d(A)[sp].d(T)[sp].d(T)[sp].d(T)[sp].d(A)[sp].d(T)[sp].d([m5C])[sp].d(T)[sp].d(G)[sp].d(T)[sp].[moe](G)p.[moe]([m5C])p.[moe](T)[sp].[moe](T)}$$$$ (last 3' nucleoside missing)”: the 3 h FOB score is 2 score 0-7.

“RNA1{[moe]([m5C])[sp].[moe](T)p.[moe](T)p.[moe](G)p.[moe](G)[sp].d(A)[sp].d([m5C])[sp].d(T)[sp].d([m5C])[sp].d([m5C])[sp].d(T)[sp].d(T)[sp].d(A)[sp].d(A)[sp].d(T)[sp].[moe](G)p.[moe](A)p.[moe]([m5C])[sp].[moe]([m5C])}$$$$ (last 3' nucleoside missing)”: the 3 h FOB score was 0 score 0-7.

As for “RNA1{[moe]([m5C])[sp].[moe](T)p.[moe](T)p.[moe](G)p.[moe](T)p.d(G)[sp].d(A)[sp].d(T)[sp].d(T)[sp].d(T)[sp].d(T)[sp].d([m5C])[sp].d([m5C])[sp].d([m5C])[sp].d([m5C])[sp].[moe](G)p.[moe](T)p.[moe]([m5C])[sp].[moe](T)}$$$$ (last 3' nucleoside missing)”, the 3 h FOB score amounted to 3 score 0-7.

“RNA1{[moe]([m5C])[sp].[moe](T)p.[moe](T)p.[moe](G)p.d(T)[sp].d(G)[sp].d(A)[sp].d(T)[sp].d(T)[sp].d(T)[sp].d(T)[sp].d([m5C])[sp].d([m5C])[sp].d([m5C])[sp].[moe]([m5C])p.[moe](G)p.[moe](T)p.[moe]([m5C])[sp].[moe](T)}$$$$ (last 3' nucleoside missing)” returned a 3 h FOB score of 0 score 0-7.

With “RNA1{[moe]([m5C])[sp].[moe](T)p.[moe](T)p.[moe](T)p.[moe](A)[sp].d(T)[sp].d(T)[sp].d(T)[sp].d(T)[sp].d(T)[sp].d([m5C])[sp].d([m5C])[sp].d(T)[sp].[moe]([m5C])p.[moe](A)p.[moe](G)[sp].[moe]([m5C])}$$$$ (last 3' nucleoside missing)”, the 3 h FOB score was 4 score 0-7.

Substance “RNA1{[moe]([m5C])[sp].[moe](T)p.[moe](T)p.[moe](T)p.[moe](A)[sp].d(T)[sp].d(T)[sp].d(T)[sp].d(T)[sp].d(T)[sp].d([m5C])[sp].d([m5C])[sp].d(T)[sp].d([m5C])[sp].d(A)[sp].[moe](G)p.[moe]([m5C])p.[moe](G)[sp].[moe](A)}$$$$ (last 3' nucleoside missing)” registered a 3 h FOB score of 0 score 0-7.

Regarding “RNA1{[moe]([m5C])[sp].[moe](T)p.[moe](T)p.[moe](T)p.[moe](A)p.[moe](T)p.d(T)[sp].d(T)[sp].d(T)[sp].d(T)[sp].d([m5C])[sp].d([m5C])[sp].d(T)[sp].d([m5C])[sp].d(A)[sp].d(G)[sp].[moe]([m5C])p.[moe](G)[sp].[moe](A)}$$$$ (last 3' nucleoside missing)”, the 3 h FOB score was 1 score 0-7.

In turn, “RNA1{[moe]([m5C])[sp].[moe](T)p.[moe](T)p.[moe](T)p.[moe](T)p.d(G)[sp].d(A)[sp].d(G)[sp].d(A)[sp].d(T)[sp].d(A)[sp].d(T)[sp].d([m5C])[sp].d(T)[sp].d(T)[sp].[moe](G)p.[moe](T)p.[moe](G)[sp].[moe](A)}$$$$ (last 3' nucleoside missing)” had a 3 h FOB score of 0 score 0-7.

As to “RNA1{[moe]([m5C])[sp].[moe](T)p.[moe](T)p.[moe](T)p.[moe]([m5C])[sp].d(T)[sp].d([m5C])[sp].d(T)[sp].d([m5C])[sp].d([m5C])[sp].d(T)[sp].d(G)[sp].d(T)[sp].d(T)[sp].d(T)[sp].[moe]([m5C])p.[moe](A)p.[moe](G)[sp].[moe]([m5C])}$$$$ (last 3' nucleoside missing)”, the 3 h FOB score amounted to 3 score 0-7.

Take “RNA1{[moe]([m5C])[sp].[moe](T)p.[moe](T)p.[moe](T)p.d(T)[sp].d(G)[sp].d(A)[sp].d(G)[sp].d(A)[sp].d(T)[sp].d(A)[sp].d(T)[sp].d([m5C])[sp].d(T)[sp].[moe](T)p.[moe](G)p.[moe](T)p.[moe](G)[sp].[moe](A)}$$$$ (last 3' nucleoside missing)”: the 3 h FOB score was found to be 1 score 0-7.
